Source: patent publication US10479780B2, “Aminopyrazole derivatives” (Chugai Seiyaku Kabushiki Kaisha, priority 2015, dated 2019)
Read-outs that look alike come from different tables or passages of the source.

Columns and labels:
Type in all cases: biochemical
[1] = target: T1, human Yes1 enzyme (Homo sapiens, UniProt P07947); test: Yes1 enzyme inhibitory activity (time-resolved fluorometry, biotinylated peptide phosphorylation); conditions: read-out: YES_IC50
T1 construct: made in house
Summary of the method: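 Inhibition was expressed against a compound-free control to give IC50, using TR-FRET read-out (Eu-cryptate anti-pTyr antibody, streptavidin-XL665).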

[2] = target: T2, human Src enzyme (Homo sapiens, UniProt P12931); test: Src enzyme inhibitory activity (time-resolved fluorometry, biotinylated peptide phosphorylation); conditions: read-out: SRC_IC50
T2 construct: purchased Carna Biosciences, Inc. 08-173
T2 sequence (P12931 whole entry): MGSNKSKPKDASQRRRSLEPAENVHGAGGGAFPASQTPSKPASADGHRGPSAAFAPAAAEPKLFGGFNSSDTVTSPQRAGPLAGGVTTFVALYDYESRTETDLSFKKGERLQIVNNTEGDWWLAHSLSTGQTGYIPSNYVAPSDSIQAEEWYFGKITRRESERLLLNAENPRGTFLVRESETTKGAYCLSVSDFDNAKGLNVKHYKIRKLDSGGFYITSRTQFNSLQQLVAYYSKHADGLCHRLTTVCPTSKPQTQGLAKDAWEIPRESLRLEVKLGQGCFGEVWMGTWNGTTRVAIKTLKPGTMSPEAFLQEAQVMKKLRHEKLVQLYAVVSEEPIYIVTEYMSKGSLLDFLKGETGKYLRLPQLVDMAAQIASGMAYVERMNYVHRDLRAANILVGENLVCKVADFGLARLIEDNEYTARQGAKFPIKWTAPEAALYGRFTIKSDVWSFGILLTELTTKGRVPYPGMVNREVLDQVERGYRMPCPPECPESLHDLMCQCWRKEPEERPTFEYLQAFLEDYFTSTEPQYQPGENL
Summary of the method: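 Compounds were tested for blocking tyrosine phosphorylation of a biotinylated peptide substrate by recombinant human Src. Phosphorylated product was quantified by time-resolved fluorometry using europium cryptate and XL665 conjugates, and IC50 was calculated against the compound-free control.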

[3] = target: T3, human Lck enzyme (Homo sapiens, UniProt P06239); test: Lck enzyme inhibitory activity (time-resolved fluorometry, biotinylated peptide phosphorylation); conditions: read-out: LCK_IC50
T3 construct: purchased Carna Biosciences, Inc. 08-170
T3 sequence (P06239 whole entry): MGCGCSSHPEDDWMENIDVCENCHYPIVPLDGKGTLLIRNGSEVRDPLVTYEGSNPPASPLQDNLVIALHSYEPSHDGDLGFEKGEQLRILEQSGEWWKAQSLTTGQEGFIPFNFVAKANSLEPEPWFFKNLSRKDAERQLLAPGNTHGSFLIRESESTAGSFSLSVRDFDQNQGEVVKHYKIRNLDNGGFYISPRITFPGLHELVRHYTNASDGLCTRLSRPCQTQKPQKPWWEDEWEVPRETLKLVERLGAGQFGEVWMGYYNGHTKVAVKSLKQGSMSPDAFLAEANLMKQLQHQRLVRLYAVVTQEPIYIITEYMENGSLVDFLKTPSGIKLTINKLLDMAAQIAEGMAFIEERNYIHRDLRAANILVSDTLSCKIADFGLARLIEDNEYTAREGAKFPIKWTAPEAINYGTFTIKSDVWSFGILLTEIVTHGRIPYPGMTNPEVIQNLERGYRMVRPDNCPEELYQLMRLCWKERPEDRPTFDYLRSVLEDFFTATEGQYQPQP
Summary of the method: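 Readout pairs a europium cryptate-labelled anti-phosphotyrosine antibody with XL665-streptavidin, measured by time-resolved fluorescence. IC50 derived from percent inhibition against untreated controls.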

[4] = biotinylated peptide phosphorylation

T1 sequence (P07947 whole entry): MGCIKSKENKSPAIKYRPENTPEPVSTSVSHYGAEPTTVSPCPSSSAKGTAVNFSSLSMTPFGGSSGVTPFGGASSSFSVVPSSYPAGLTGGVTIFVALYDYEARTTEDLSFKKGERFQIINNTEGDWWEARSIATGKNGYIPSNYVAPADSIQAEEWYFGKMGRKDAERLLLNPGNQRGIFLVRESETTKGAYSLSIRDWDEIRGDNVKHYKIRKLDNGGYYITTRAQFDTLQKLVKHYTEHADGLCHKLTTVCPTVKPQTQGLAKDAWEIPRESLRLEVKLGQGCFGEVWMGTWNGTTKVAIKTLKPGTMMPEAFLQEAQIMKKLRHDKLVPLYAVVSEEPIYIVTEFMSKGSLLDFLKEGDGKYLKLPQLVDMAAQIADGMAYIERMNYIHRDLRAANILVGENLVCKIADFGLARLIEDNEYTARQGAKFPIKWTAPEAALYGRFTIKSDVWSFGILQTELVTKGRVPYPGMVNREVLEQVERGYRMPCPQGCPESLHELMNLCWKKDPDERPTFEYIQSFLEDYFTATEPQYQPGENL

SMILES	IC50 [1, 4] [nM]	IC50 [2, 4] [nM]	IC50 [3, 4] [nM]	IC50 [1] [nM]	IC50 [2] [nM]	IC50 [3] [nM]
Cc1cc(Oc2c(F)cccc2F)ncc1-n1ncc(C(=O)c2cc3cc(OCC(F)F)c(NS(=O)(=O)c4cccc(C#N)n4)cc3[nH]2)c1N [Example 5-1-574, N-[2-[5-amino-1-[6-(2,6-difluorophenoxy)-4-methylpyridin-3-yl]pyrazole-4-carbonyl]-5-(2,2-difluoroethoxy)-1H-indol-6-yl]-6-cyanopyridine-2-sulfonamide]	2.8	540	13			
Cc1cc2cc(C(=O)c3cnn(-c4cnc(Oc5ccccc5F)cc4C)c3N)[nH]c2cc1N1CCOCC1 [Example 4-2-123, [5-amino-1-[6-(2-fluorophenoxy)-4-methylpyridin-3-yl]pyrazol-4-yl]-(5-methyl-6-morpholin-4-yl-1H-indol-2-yl)methanone]	1.9	37	5.8			
CC(=O)N1CCC(c2cc3[nH]c(C(=O)c4cnn(-c5cnc(Oc6ccccc6F)cc5C)c4N)cc3cc2OC(F)F)CC1 [Example 4-17-008, 1-[4-[2-[5-amino-1-[6-(2-fluorophenoxy)-4-methylpyridin-3-yl]pyrazole-4-carbonyl]-5-(difluoromethoxy)-1H-indol-6-yl]piperidin-1-yl]ethanone]	1.6	13	5.5			
Cc1cc(Oc2ccccc2F)ccc1-n1ncc(C(=O)c2cc3cc(F)c(NS(=O)(=O)CC(=O)N4CCCC4)cc3[nH]2)c1N [Example 4-26-001, N-(2-(5-amino-1-(4-(2-fluorophenoxy)-2-methylphenyl)-1H-pyrazole-4-carbonyl)-5-fluoro-1H-indol-6-yl)-2-oxo-2-(pyrrolidin-1-yl)ethanesulfonamide]	1.5	26	7.6			
Cc1cc(Oc2ccccc2F)ccc1-n1ncc(C(=O)c2cc3cc(OCC(F)F)c(N4CCN(S(C)(=O)=O)CC4)cc3[nH]2)c1N [Example 4-23-005, [5-amino-1-[4-(2-fluorophenoxy)-2-methylphenyl]pyrazol-4-yl]-[5-(2,2-difluoroethoxy)-6-(4-methylsulfonylpiperazin-1-yl)-1H-indol-2-yl]methanone]	1.7	16	8.2			
Cc1cc(Oc2c(F)cccc2F)ncc1-n1ncc(C(=O)c2cc3cc(OCC(F)F)c(-c4cccs4)cc3[nH]2)c1N [Example 5-1-257, [5-amino-1-[6-(2,6-difluorophenoxy)-4-methylpyridin-3-yl]pyrazol-4-yl]-[5-(2,2-difluoroethoxy)-6-thiophen-2-yl-1H-indol-2-yl] methanone]				40	250	95
Cc1cc2cc(C(=O)c3cnn(-c4ccc(Oc5ccccc5F)cc4C)c3N)[nH]c2cc1NS(=O)(=O)c1cccc(F)c1 [Example 5-1-550, N-[2-[5-amino-1-[4-(2-fluorophenoxy)-2-methylphenyl]pyrazole-4-carbonyl]-5-methyl-1H-indol-6-yl]-3-fluorobenzenesulfonamide]	5.1	490	72			
Cc1cc(Oc2ccccc2)cc(F)c1-n1ncc(C(=O)c2cc3cc(NS(C)(=O)=O)c(Cl)cc3[nH]2)c1N [Example 4-2-095, N-[2-[5-amino-1-(2-fluoro-6-methyl-4-phenoxyphenyl)pyrazole-4-carbonyl]-6-chloro-1H-indol-5-yl]methanesulfonamide]	0.85	14	5.3			
Cc1cc(Oc2ccccc2F)ccc1-n1ncc(C(=O)c2cc3cc(OC4CCN(C(C)C)CC4)c(N4CCN(S(C)(=O)=O)CC4)cc3[nH]2)c1N [Example 5-1-191, [5-amino-1-[4-(2-fluorophenoxy)-2-methylphenyl]pyrazol-4-yl]-[6-(4-methylsulfonylpiperazin-1-yl)-5-(1-propan-2-ylpiperidin-4-yl)oxy-1H-indol-2-yl]methanone]				0.48	2.2	1.6
Cc1cc(Oc2c(F)cccc2F)ncc1-n1ncc(C(=O)c2cc3cc(OC4CCN(C5COC5)CC4)c(Br)cc3[nH]2)c1N [Example 5-1-222, [5-amino-1-[6-(2,6-difluorophenoxy)-4-methylpyridin-3-yl]pyrazol-4-yl]-[6-bromo-5-[1-(oxetan-3-yl)plperidin-4-yl]oxy-1H-indol-2-yl] methanone]				1.3	4.7	7.5
Cc1cc2cc(C(=O)c3cnn(-c4cnc(Oc5c(F)cccc5F)cc4C)c3N)[nH]c2cc1N1C(=O)NC2(CCN(Cc3ccccc3)C2)C1=O (stereo not drawn) [Example 5-1-363, 3-[2-[5-amino-1-[6-(2,6-difluorophenoxy)-4-methylpyridin-3-yl]pyrazole-4-carbonyl]-5-methyl-1H-indol-6-yl]-7-benzyl-1,3,7-triazaspiro[4.4]nonane-2,4-dione]				11	260	31
Cc1cc2cc(C(=O)c3cnn(-c4cnc(Oc5c(F)cccc5F)cc4C)c3N)[nH]c2cc1C1CCN(S(C)(=O)=O)CC1 [Example 5-1-091, [5-amino-1-[6-(2,6-difluorophenoxy)-4-methylpyridin-3-yl]pyrazol-4-yl]-[5-methyl-6-(1-methylsulfonylpiperidin-4-yl)-1H-indol-2-yl] methanone]				3.2	24	3.7
Cc1cc(Oc2ccccc2F)nc(C)c1-n1ncc(C(=O)c2cc3cc(F)c(NS(C)(=O)=O)cc3[nH]2)c1N [Example 5-1-060, N-[2-[5-amino-1-[6-(2-fluorophenoxy)-2,4-dimethylpyridin-3-yl]pyrazole-4-carbonyl]-5-fluoro-1H-indol-6-yl]methanesulfonamide]				82	390	42
Cc1cc(Oc2cccc(F)c2F)ncc1-n1ncc(C(=O)c2cc3cc(F)c(NS(=O)(=O)C4CC4)cc3[nH]2)c1N [Example 4-2-045, N-[2-[5-amino-1-[6-(2,3-difluorophenoxy)-4-methylpyridin-3-yl]pyrazole-4-carbonyl]-5-fluoro-1H-indol-6-yl]cyclopropanesulfonamide]	4.9	230	89			
Cc1cc(Oc2ccccc2F)ncc1-n1ncc(C(=O)c2cc3cc(OC(F)F)c(NS(=O)(=O)C4CCOCC4)cc3[nH]2)c1N [Example 5-1-401, N-[2-[5-amino-1-[6-(2-fluorophenoxy)-4-methylpyridin-3-yl]pyrazole-4-carbonyl]-5-(difluoromethoxy)-1H-indol-6-yl]oxane-4-sulfonamide]	2.5	140	41			
Cc1cc(Oc2c(F)cccc2F)ncc1-n1ncc(C(=O)c2cc3cc(OCC(F)F)c(NC4CCN(S(C)(=O)=O)CC4)cc3[nH]2)c1N [Example 4-23-021, [5-amino-1-[6-(2,6-difluorophenoxy)-4-methylpyridin-3-yl]pyrazol-4-yl]-[5-(2,2-difluoroethoxy)-6-[(1-methylsulfonylpiperidin-4-yl)amino]-1H-indol-2-yl]methanone]	3.6	21	11			
Cc1cc2cc(C(=O)c3cnn(-c4cnc(Oc5ccccc5Cl)cc4C)c3N)[nH]c2cc1N1CCCS1(=O)=O [Example 4-2-117, [5-amino-1-[6-(2-chlorophenoxy)-4-methylpyridin-3-yl]pyrazol-4-yl]-[6-(1,1-dioxo-1,2-thiazolidin-2-yl)-5-methyl-1H-indol-2-yl]methanone]	0.6	21	4.8			
Cc1cc(Oc2ccccc2F)ncc1-n1ncc(C(=O)c2cc3cc(N4CCOCC4)c(NS(C)(=O)=O)cc3[nH]2)c1N [Example 4-24-015, N-[2-[5-amino-1-[6-(2-fluorophenoxy)-4-methylpyridin-3-yl]pyrazole-4-carbonyl]-5-morpholin-4-yl-1H-indol-6-yl]methanesulfonamide]	1.3	77	16			
Cc1cc(Oc2ccccc2F)ccc1-n1ncc(C(=O)c2cc3cc(OC(F)F)c(N4CC5(CCCC5)NS4(=O)=O)cc3[nH]2)c1N [Example 5-1-423, [5-amino-1-[4-(2-fluorophenoxy)-2-methylphenyl]pyrazol-4-yl]-[5-(difluoromethoxy)-6-(2,2-dioxo-2λ6-thia-1,3-diazaspiro[4.4]nonan-3-yl)-1H-indol-2-yl]methanone]	4	190	61			
Cc1cc(-n2ncc(C(=O)c3cc4cc(N5CCOCC5)c(N5CCC(N6CCOCC6)CC5)cc4[nH]3)c2N)ccc1Oc1ccccc1F [Example 5-1-165, [5-amino-1-[4-(2-fluorophenoxy)-3-methylphenyl]pyrazol-4-yl]-[5-morpholin-4-yl-6-(4-morpholin-4-ylpiperidin-1-yl)-1H-indol-2-yl] methanone]				1.8	340	37
Cc1ccccc1Oc1cc(C)c(-n2ncc(C(=O)c3cc4cc(F)c(NS(=O)(=O)CCCF)cc4[nH]3)c2N)cn1 [Example 4-2-025, N-[2-[5-amino-1-[4-methyl-6-(2-methylphenoxy)pyridin-3-yl]pyrazole-4-carbonyl]-5-fluoro-1H-indol-6-yl]-3-fluoropropane-1-sulfonamide]	2.4	52	35			
CC(=O)N1CCC(c2cc3[nH]c(C(=O)c4cnn(-c5cnc(Oc6ccccc6F)cc5C)c4N)cc3cc2OCC(F)F)CC1 [Example 4-17-020, 1-[4-[2-[5-amino-1-[6-(2-fluorophenoxy)-4-methylpyridin-3-yl]pyrazole-4-carbonyl]-5-(2,2-difluoroethoxy)-1H-indol-6-yl]piperidin-1-yl]ethanone]	0.81	8.3	3.3			
